Measured values taken from patent US20240391862A1, “(1,4,5-TRISUBSTITUTED-1H-PYRAZOL-3-YL)OXY-2-ALKOXY ALKYL ACIDS AND THEIR DERIVATIVES, THEIR SALTS AND THEIR USE AS HERBICIDAL AGENTS” (Bayer AKtiengesellschaft, priority 2021, published 2024).

How the values were obtained:
Assay in all cases: Post-emergence herbicidal effect, greenhouse pot test
ALOMY = type: in vivo, Alopecurus myosuroides; details: visual rating about 3 weeks after treatment; for pest or weed control at 80 g/ha / pest or weed control at 320 g/ha: Alopecurus myosuroides, 504 h, read-out: Post-emergence effect against ALOMY
From the text: (§1) • ALOMY: Alopecurus myosuroides SETVI: Setaria viridis • AVEFA: Avena fatua POLCO: Fallopia convolvulus • AMARE: Amaranthus retroflexus ECHCG: Echinochloa crus-galli • LOLRJ: Lolium rigidum STEME: Stellaria media • VERPE: Veronica persica MATIN: Tripleurospermum inodorum • DIGSA: Digitaria sanguinalis ABUTH: Abutylon threophrasti • TRZAS: Triticum aestivum VIOTR: Viola tricolor • BRSNW: Brassica napus ZEAMX: Zea mays • PHBPU: Ipomoea purpurea GLXMA: Glycine max • ORYSA: Oryza sativa HORMU: Hordeum murinum
(§2) Seeds of monocotyledonous and dicotyledonous weeds and crop plants are placed in sandy loam in plastic or organic planting pots, covered with soil and cultivated in a greenhouse under controlled growth conditions. 2 to 3 weeks after sowing, the trial plants are treated at the one-leaf stage. The compounds of the invention, formulated in the form of wettable powders (WP) or as emulsion concentrates (EC), are then sprayed onto the green parts of the plants as aqueous suspension or emulsion with addition of 0.5% additive at a water application rate of 600 l/ha (converted). After the test plants have been kept in the greenhouse under optimum growth conditions for about 3 weeks, the activity of the preparations is rated visually in comparison to untreated controls. For example, 100% activity=the plants have died, 0% activity=like control plants.
(§3) Tables 20a to 38c below show the effects/crop compatibilities of selected compounds of the general formula (I) on various harmful plants at an application rate corresponding to 20 to 320 g/ha, which were obtained by the trial procedure specified above.

VERPE = type: in vivo, Veronica persica; details: for pest or weed control at 20 g/ha / pest or weed control at 80 g/ha / pest or weed control at 320 g/ha: Veronica persica, 504 h, read-out: Post-emergence effect against VERPE in %
From the text: as §1, §2, §3

PHBPU = type: in vivo, Ipomoea purpurea; details: for pest or weed control at 80 g/ha / pest or weed control at 20 g/ha / pest or weed control at 320 g/ha: Ipomoea purpurea, 504 h, read-out: Post-emergence effect against PHBPU in %
From the text: as §1, §2, §3

MATIN = type: in vivo, Tripleurospermum inodorum; details: for pest or weed control at 20 g/ha / pest or weed control at 80 g/ha / pest or weed control at 320 g/ha: Tripleurospermum inodorum, 504 h, read-out: Post-emergence effect against MATIN in %
From the text: as §1, §2, §3

AMARE = type: in vivo, Amaranthus retroflexus; details: visual rating about 3 weeks after treatment; for pest or weed control at 80 g/ha / pest or weed control at 320 g/ha: Amaranthus retroflexus, 504 h, read-out: Post-emergence effect against AMARE
From the text: as §1, §2, §3

ECHCG = type: in vivo, Echinochloa crus-galli; details: for pest or weed control at 20 g/ha / pest or weed control at 80 g/ha / pest or weed control at 320 g/ha: Echinochloa crus-galli, 504 h; for pest or weed control at 20 g/ha: visual rating about 3 weeks after treatment, read-out: Post-emergence effect against ECHCG; for pest or weed control at 80 g/ha / pest or weed control at 320 g/ha: read-out: Post-emergence effect against ECHCG in %
From the text: as §1, §2, §3

VIOTR = type: in vivo, Viola tricolor; details: for pest or weed control at 20 g/ha / pest or weed control at 80 g/ha / pest or weed control at 320 g/ha: Viola tricolor, 504 h, read-out: Post-emergence effect against VIOTR in %
From the text: as §1, §2, §3

DIGSA = type: in vivo, Digitaria sanguinalis; details: visual rating about 3 weeks after treatment; for pest or weed control at 80 g/ha / pest or weed control at 320 g/ha: Digitaria sanguinalis, 504 h, read-out: Post-emergence effect against DIGSA
From the text: as §1, §2, §3

SETVI = type: in vivo, Setaria viridis; details: for pest or weed control at 80 g/ha / pest or weed control at 320 g/ha / pest or weed control at 20 g/ha: Setaria viridis, 504 h, read-out: Post-emergence effect against SETVI in %
From the text: as §1, §2, §3

LOLRI = type: in vivo, Lolium rigidum; details: Lolium rigidum, 504 h, read-out: Post-emergence effect against LOLRI in %
From the text: as §1, §2, §3

AVEFA = type: in vivo, Avena fatua; details: visual rating about 3 weeks after treatment; for pest or weed control at 80 g/ha / pest or weed control at 320 g/ha: Avena fatua, 504 h, read-out: Post-emergence effect against AVEFA
From the text: as §1, §2, §3

POLCO = type: in vivo, Fallopia convolvulus; details: Fallopia convolvulus, 504 h, read-out: Post-emergence effect against POLCO in %
From the text: as §1, §2, §3

ABUTH = type: in vivo, Abutilon theophrasti; details: Abutilon theophrasti, 504 h, visual rating about 3 weeks after treatment, read-out: Post-emergence effect against ABUTH
From the text: as §1, §2, §3

Structure (SMILES)	pest or weed control at 20 g/ha (VERPE) [%]	pest or weed control at 80 g/ha (PHBPU) [%]	pest or weed control at 20 g/ha (MATIN) [%]	pest or weed control at 80 g/ha (MATIN) [%]	pest or weed control at 80 g/ha (AMARE) [%]	pest or weed control at 80 g/ha (ECHCG) [%]	pest or weed control at 20 g/ha (VIOTR) [%]	pest or weed control at 80 g/ha (VIOTR) [%]	pest or weed control at 80 g/ha (SETVI) [%]	pest or weed control at 320 g/ha (LOLRI) [%]	pest or weed control at 80 g/ha (AVEFA) [%]	pest or weed control at 320 g/ha (POLCO) [%]	pest or weed control at 320 g/ha (ALOMY; 320 g/ha) [%]	pest or weed control at 80 g/ha (ABUTH) [%]	pest or weed control at 320 g/ha (ABUTH) [%]	pest or weed control at 80 g/ha (VERPE; 80 g/ha) [%]	pest or weed control at 320 g/ha (VERPE; 320 g/ha) [%]	pest or weed control at 320 g/ha (PHBPU; 320 g/ha) [%]	pest or weed control at 320 g/ha (MATIN; 320 g/ha) [%]	pest or weed control at 320 g/ha (AMARE; 320 g/ha) [%]	other results
CCOC(=O)C(OC)Oc1nn(-c2ccccc2F)c(-c2ccc(F)nc2)c1Br (stereo not shown) [Example I-23]	80	80	80	80	80	80	80	80	80	90	80	80	–	–	–	–	–	–	–	–	Post-emergence effect against ALOMY (ALOMY; 320 g/ha): 90%; pest or weed control at 80 g/ha (ALOMY): 90%; Post-emergence effect against VERPE in % (VERPE; 80 g/ha): 90%; Post-emergence effect against VERPE in % (VERPE; 320 g/ha): 90%; Post-emergence effect against PHBPU in % (PHBPU; 320 g/ha): 90%; Post-emergence effect against MATIN in % (MATIN; 320 g/ha): 90%; Post-emergence effect against AMARE (AMARE; 320 g/ha): 90%; Post-emergence effect against ECHCG in % (ECHCG; 320 g/ha): 90%; pest or weed control at 20 g/ha (ECHCG): 80%; Post-emergence effect against VIOTR in % (VIOTR; 320 g/ha): 80%; Post-emergence effect against DIGSA (DIGSA; 320 g/ha): 90%; pest or weed control at 80 g/ha (DIGSA): 90%; Post-emergence effect against SETVI in % (SETVI; 320 g/ha): 90%; Post-emergence effect against AVEFA (AVEFA; 320 g/ha): 80%
COC(=O)C(OC)Oc1nn(-c2cc(F)ccc2F)c(-c2cncc(F)c2)c1Br (stereo not shown) [Example I-29]	–	80	80	90	90	80	80	90	90	90	90	80	90	80	90	90	90	90	90	90	pest or weed control at 20 g/ha (PHBPU): 80%; pest or weed control at 320 g/ha (ECHCG; 320 g/ha): 90%; pest or weed control at 320 g/ha (VIOTR; 320 g/ha): 90%; pest or weed control at 320 g/ha (DIGSA; 320 g/ha): 80%; pest or weed control at 320 g/ha (SETVI; 320 g/ha): 90%; pest or weed control at 320 g/ha (AVEFA; 320 g/ha): 90%
COC(=O)C(OC)Oc1nn(-c2ccccc2)c(-c2ccc(F)nc2)c1Br (stereo not shown) [Example I-30]	80	80	–	80	80	90	80	90	90	90	90	80	90	80	90	80	90	90	90	80	pest or weed control at 20 g/ha (ECHCG): 80%; pest or weed control at 320 g/ha (ECHCG; 320 g/ha): 90%; pest or weed control at 320 g/ha (VIOTR; 320 g/ha): 90%; pest or weed control at 80 g/ha (DIGSA): 90%; pest or weed control at 320 g/ha (DIGSA; 320 g/ha): 90%; pest or weed control at 20 g/ha (SETVI): 80%; pest or weed control at 320 g/ha (SETVI; 320 g/ha): 90%; pest or weed control at 320 g/ha (AVEFA; 320 g/ha): 90%; pest or weed control at 80 g/ha (POLCO): 80%
CCOC(=O)C(OC)Oc1nn(-c2cc(F)ccc2F)c(-c2cncc(F)c2)c1C1CC1 (stereo not shown) [Example I-37]	90	90	80	90	90	100	80	90	90	100	80	90	100	90	90	100	100	90	90	90	pest or weed control at 80 g/ha (ALOMY): 100%; pest or weed control at 20 g/ha (ABUTH; 20 g/ha): 80%; pest or weed control at 20 g/ha (PHBPU): 90%; pest or weed control at 320 g/ha (ECHCG; 320 g/ha): 100%; pest or weed control at 320 g/ha (VIOTR; 320 g/ha): 90%; pest or weed control at 320 g/ha (DIGSA; 320 g/ha): 90%; pest or weed control at 320 g/ha (SETVI; 320 g/ha): 90%; pest or weed control at 80 g/ha (LOLRI): 90%; pest or weed control at 320 g/ha (AVEFA; 320 g/ha): 90%; pest or weed control at 80 g/ha (POLCO): 90%
COC(=O)C(OC)Oc1nn(-c2cc(F)ccc2F)c(-c2cncc(F)c2)c1C1CC1 (stereo not shown) [Example I-111]	80	90	80	80	80	90	–	80	80	90	90	80	90	80	90	80	80	90	80	80	pest or weed control at 80 g/ha (ALOMY): 80%; pest or weed control at 20 g/ha (PHBPU): 80%; pest or weed control at 20 g/ha (ECHCG): 80%; pest or weed control at 320 g/ha (ECHCG; 320 g/ha): 90%; pest or weed control at 320 g/ha (VIOTR; 320 g/ha): 80%; pest or weed control at 320 g/ha (DIGSA; 320 g/ha): 80%; pest or weed control at 20 g/ha (SETVI): 80%; pest or weed control at 320 g/ha (SETVI; 320 g/ha): 80%; pest or weed control at 80 g/ha (LOLRI): 90%; pest or weed control at 320 g/ha (AVEFA; 320 g/ha): 90%; pest or weed control at 80 g/ha (POLCO): 80%
